Test results: PubChem BioAssay (NCI)
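At the GI50, growth is halved. TGI is the concentration that stops growth completely.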

Experiments:
Test in all cases: DTP human tumour cell line panel, 384-well format
[1] = test system: MDA-MB-468 breast
[2] = test system: OVCAR-8 ovarian
[3] = test system: RXF 393 renal
[4] = test system: NCI-H322M lung
[5] = test system: UO-31 renal
[6] = test system: IGROV1 ovarian
[7] = test system: SF-539 CNS
[8] = test system: SK-OV-3 ovarian
[9] = test system: SK-MEL-5 melanoma
[10] = test system: MOLT-4 leukemia
[11] = test system: HOP-92 NSCLC
[12] = test system: OVCAR-4 ovarian
[13] = test system: KM12 colon
[14] = test system: SNB-19 CNS
[15] = test system: HOP-62 NSCLC
[16] = test system: DU-145 prostate
[17] = test system: SR leukemia
[18] = test system: SNB-75 CNS
[19] = test system: ACHN renal
[20] = test system: CAKI-1 renal
[21] = test system: HCC-2998 colon
[22] = test system: NCI/ADR-RES ovarian
[23] = test system: M14 melanoma
[24] = test system: COLO 205 colon
[25] = test system: SF-268 CNS
[26] = test system: HS 578T breast
[27] = test system: 786-0 renal
[28] = test system: BT-549 breast
[29] = test system: UACC-257 melanoma
[30] = test system: TK-10 renal
[31] = test system: OVCAR-3 ovarian
[32] = test system: HCT-116 colon
[33] = test system: MDA-MB-435 melanoma
[34] = test system: PC-3 prostate
[35] = test system: U251 glioblastoma
[36] = test system: A498 renal
[37] = test system: HT29 colon
[38] = test system: HCT-15 colon
[39] = test system: A549 NSCLC
[40] = test system: MDA-MB-231 breast
[41] = test system: MALME-3M melanoma
[42] = test system: SF-295 CNS
[43] = test system: RPMI-8226 leukemia
[44] = test system: T-47D breast
[45] = test system: SN12C renal
[46] = test system: SK-MEL-28 melanoma
[47] = test system: NCI-H522 lung
[48] = test system: MCF7 breast
[49] = test system: SW-620 colon
[50] = test system: NCI-H23 lung
[51] = test system: K-562 leukemia
[52] = test system: CCRF-CEM leukemia
[53] = test system: EKVX NSCLC
[54] = test system: OVCAR-5 ovarian
[55] = test system: HL-60(TB) leukemia
[56] = test system: NCI-H226 lung
[57] = test system: NCI-H460 NSCLC
[58] = test system: LOX IMVI melanoma

Compound: Cc1ccccc1N=Nc1ccc(NC(=O)c2ccnn2C)c(C)c1
- GI50 [1]: 3.87 µM
- TGI [1]: 59.4 µM
- GI50 [2]: 46.4 µM
- TGI [2]: > 100 µM
- GI50 [3]: 5.29 µM
- TGI [3]: 23.7 µM
- GI50 [4]: 51.9 µM
- TGI [4]: > 100 µM
- GI50 [5]: > 100 µM
- TGI [5]: > 100 µM
- GI50 [6]: > 100 µM
- TGI [6]: > 100 µM
- GI50 [7]: > 100 µM
- TGI [7]: > 100 µM
- GI50 [8]: > 100 µM
- TGI [8]: > 100 µM
- GI50 [9]: 11.2 µM
- TGI [9]: 87.1 µM
- GI50 [10]: 30.4 µM
- TGI [10]: > 100 µM
- GI50 [11]: 34.8 µM
- TGI [11]: > 100 µM
- GI50 [12]: 47.7 µM
- TGI [12]: > 100 µM
- GI50 [13]: > 100 µM
- TGI [13]: > 100 µM
- GI50 [14]: > 100 µM
- TGI [14]: > 100 µM
- GI50 [15]: 37.2 µM
- TGI [15]: > 100 µM
- GI50 [16]: > 100 µM
- TGI [16]: > 100 µM
- GI50 [17]: 2 µM
- TGI [17]: 7.31 µM
- GI50 [18]: 25.8 µM
- TGI [18]: 99.7 µM
- GI50 [19]: 95.2 µM
- TGI [19]: > 100 µM
- GI50 [20]: > 100 µM
- TGI [20]: > 100 µM
- GI50 [21]: > 100 µM
- TGI [21]: > 100 µM
- GI50 [22]: 6.99 µM
- TGI [22]: > 100 µM
- GI50 [23]: > 100 µM
- TGI [23]: > 100 µM
- GI50 [24]: > 100 µM
- TGI [24]: > 100 µM
- GI50 [25]: 96.7 µM
- TGI [25]: > 100 µM
- GI50 [26]: 27.8 µM
- TGI [26]: > 100 µM
- GI50 [27]: 68.8 µM
- TGI [27]: > 100 µM
- GI50 [28]: 48.6 µM
- TGI [28]: > 100 µM
- GI50 [29]: 40.2 µM
- TGI [29]: > 100 µM
- GI50 [30]: 63.7 µM
- TGI [30]: > 100 µM
- GI50 [31]: > 100 µM
- TGI [31]: > 100 µM
- GI50 [32]: 13.1 µM
- TGI [32]: > 100 µM
- GI50 [33]: > 100 µM
- TGI [33]: > 100 µM
- GI50 [34]: > 100 µM
- TGI [34]: > 100 µM
- GI50 [35]: 18 µM
- TGI [35]: 73.1 µM
- GI50 [36]: 90.4 µM
- TGI [36]: > 100 µM
- GI50 [37]: > 100 µM
- TGI [37]: > 100 µM
- GI50 [38]: 54.4 µM
- TGI [38]: > 100 µM
- GI50 [39]: > 100 µM
- TGI [39]: > 100 µM
- GI50 [40]: 92.8 µM
- TGI [40]: > 100 µM
- GI50 [41]: > 100 µM
- TGI [41]: > 100 µM
- GI50 [42]: 27.1 µM
- TGI [42]: > 100 µM
- GI50 [43]: 5.58 µM
- TGI [43]: > 100 µM
- GI50 [44]: 8.3 µM
- TGI [44]: > 100 µM
- GI50 [45]: > 100 µM
- TGI [45]: > 100 µM
- GI50 [46]: > 100 µM
- TGI [46]: > 100 µM
- GI50 [47]: 15.4 µM
- TGI [47]: 93.1 µM
- GI50 [48]: 36.8 µM
- TGI [48]: > 100 µM
- GI50 [49]: > 100 µM
- TGI [49]: > 100 µM
- GI50 [50]: 13.6 µM
- TGI [50]: > 100 µM
- GI50 [51]: 7.47 µM
- TGI [51]: > 100 µM
- GI50 [52]: 13.8 µM
- TGI [52]: > 100 µM
- GI50 [53]: 23.2 µM
- TGI [53]: > 100 µM
- GI50 [54]: > 100 µM
- TGI [54]: > 100 µM
- GI50 [55]: 34.4 µM
- TGI [55]: > 100 µM
- GI50 [56]: 31.5 µM
- TGI [56]: > 100 µM
- GI50 [57]: 6.69 µM
- TGI [57]: 27.3 µM
- GI50 [58]: 39.4 µM
- TGI [58]: > 100 µM

Compound: CCc1c(C#N)c(S[C@@H](C(N)=O)c2ccccc2)nc(N(C)C)c1C#N
- GI50 [1]: > 100 µM
- TGI [1]: > 100 µM
- GI50 [2]: 3.77 µM
- TGI [2]: > 100 µM
- GI50 [3]: 2.31 µM
- TGI [3]: 6.06 µM
- GI50 [4]: > 100 µM
- TGI [4]: > 100 µM
- GI50 [5]: > 100 µM
- TGI [5]: > 100 µM
- GI50 [6]: > 100 µM
- TGI [6]: > 100 µM
- GI50 [7]: > 100 µM
- TGI [7]: > 100 µM
- GI50 [9]: > 100 µM
- TGI [9]: > 100 µM
- GI50 [10]: > 100 µM
- TGI [10]: > 100 µM
- GI50 [11]: 10.6 µM
- TGI [11]: > 100 µM
- GI50 [12]: > 100 µM
- TGI [12]: > 100 µM
- GI50 [13]: > 100 µM
- TGI [13]: > 100 µM
- GI50 [14]: > 100 µM
- TGI [14]: > 100 µM
- GI50 [16]: > 100 µM
- TGI [16]: > 100 µM
- GI50 [17]: 3.05 µM
- TGI [17]: > 100 µM
- GI50 [18]: 26.4 µM
- TGI [18]: 76.8 µM
- GI50 [20]: > 100 µM
- TGI [20]: > 100 µM
- GI50 [21]: > 100 µM
- TGI [21]: > 100 µM
- GI50 [22]: > 100 µM
- TGI [22]: > 100 µM
- GI50 [23]: > 100 µM
- TGI [23]: > 100 µM
- GI50 [24]: > 100 µM
- TGI [24]: > 100 µM
- GI50 [25]: > 100 µM
- TGI [25]: > 100 µM
- GI50 [26]: 4.58 µM
- TGI [26]: > 100 µM
- GI50 [27]: > 100 µM
- TGI [27]: > 100 µM
- GI50 [30]: > 100 µM
- TGI [30]: > 100 µM
- GI50 [31]: > 100 µM
- TGI [31]: > 100 µM
- GI50 [33]: > 100 µM
- TGI [33]: > 100 µM
- GI50 [34]: > 100 µM
- TGI [34]: > 100 µM
- GI50 [35]: > 100 µM
- TGI [35]: > 100 µM
- GI50 [36]: > 100 µM
- TGI [36]: > 100 µM
- GI50 [37]: > 100 µM
- TGI [37]: > 100 µM
- GI50 [38]: > 100 µM
- TGI [38]: > 100 µM
- GI50 [39]: > 100 µM
- TGI [39]: > 100 µM
- GI50 [40]: 37.7 µM
- TGI [40]: > 100 µM
- GI50 [41]: 38.1 µM
- TGI [41]: > 100 µM
- GI50 [42]: 3.83 µM
- TGI [42]: > 100 µM
- GI50 [43]: > 100 µM
- TGI [43]: > 100 µM
- GI50 [44]: > 100 µM
- TGI [44]: > 100 µM
- GI50 [45]: > 100 µM
- TGI [45]: > 100 µM
- GI50 [46]: > 100 µM
- TGI [46]: > 100 µM
- GI50 [48]: > 100 µM
- TGI [48]: > 100 µM
- GI50 [49]: > 100 µM
- TGI [49]: > 100 µM
- GI50 [51]: > 100 µM
- TGI [51]: > 100 µM
- GI50 [52]: > 100 µM
- TGI [52]: > 100 µM
- GI50 [53]: > 100 µM
- TGI [53]: > 100 µM
- GI50 [54]: > 100 µM
- TGI [54]: > 100 µM
- GI50 [55]: > 100 µM
- TGI [55]: > 100 µM
- GI50 [57]: > 100 µM
- TGI [57]: > 100 µM
- GI50 [58]: > 100 µM
- TGI [58]: > 100 µM
